In data set [1] the target is T1, CgAspAT (Corynebacterium glutamicum, UniProt Q8NTR2).
T1 construct: gene Cgl0240; pET30a, Ni-NTA purified, E. coli BL21(DE3)-T1R host; about 90 kDa homodimer; core domain Leu56-Gly304, C-terminal residue named Asn426
In words: malate dehydrogenase-coupled NADH oxidation, […] nm. In kind it is biochemical. As to conditions: 300 mM L-aspartate, 50 mM α-ketoglutarate, 100 mM Tris-HCl pH 8.0, 303 K, no added PLP.

For data set [2], the target named is T1, CgAspAT. In words: X-ray crystal structure, […] Å. In kind it is binding. As to conditions: copurified, no PLP added; 28% PEG 3350, 200 mM ammonium citrate dibasic; near Lys259 (known aldimine lysine, covalent bond not stated for this structure).
Data set [3] deals with the molecule itself. As to the kind of experiment: SEC; Sephacryl S-300 prep-grade column (320 ml), 40 mM Tris-HCl pH 8.0, 277 K; last step of the purification; dimer of the protein with itself. A general note: SEC sorts molecules by how far they enter the pores of the column.

Turning to `O=C(O)CCC(=O)C(=O)O` [α-ketoglutarate], at CgAspAT [1], the “malate dehydrogenase-coupled NADH oxidation, 340 nm” value is “CgAspAT enzymes catalyze L-asparate and α-ketoglutarate to L-glutamate and oxaloacetate”.

For `Cc1ncc(COP(=O)(O)O)c(C=O)c1O` [PLP], the “X-ray crystal structure, 2.0 Å” value at CgAspAT [2] is given as “we observed the electron density for the PLP cofactor in our structure without adding it”.

Turning to `N[C@@H](CC(=O)O)C(=O)O` [L-aspartate], the “malate dehydrogenase-coupled NADH oxidation, 340 nm” value on CgAspAT [1] was “CgAspAT enzymes catalyze L-asparate and α-ketoglutarate to L-glutamate and oxaloacetate”.

B1: Aspartate aminotransferase from Corynebacterium glutamicum ATCC13032 (enzyme, Corynebacterium glutamicum ATCC 13032)
chain: MSSVSLQDFDAERIGLFHEDIKRKFDELKSKNLKLDLTRGKPSSEQLDFADELLALPGKGDFKAADGTDVRNYGGLDGIVDIRQIWADLLGVPVEQVLAGDASSLNIMFDVISWSYIFGNNDSVQPWSKEETVKWICPVPGYDRHFSITERFGFEMISVPMNEDGPDMDAVEELVKNPQVKGMWVVPVFSNPTGFTVTEDVAKRLSAMETAAPDFRVVWDNAYAVHTLTDEFPEVIDIVGLGEAAGNPNRFWAFTSTSKITLAGAGVSFFLTSAENRKWYTGHAGIRGIGPNKVNQLAHARYFGDAEGVRAVMRKHAASLAPKFNKVLEILDSRLAEYGVAQWTVPAGGYFISLDVVPGTASRVAELAKEAGIALTGAGSSYPLRQDPENKNLRLAPSLPPVEELEVAMDGVATCVLLAAAEHYAN
notes: Aspartate aminotransferase (CgAspAT) of Corynebacterium glutamicum ATCC 13032, gene amplified from chromosomal DNA and cloned into pET30a; residues up to Asn426 are named in the structure; also called CgAspAT; AspAT; source: E. coli BL21(DE3)-T1R, purified (Ni-NTA, size-exclusion chromatography on Sephacryl S-300)
Broadly, the stoichiometry N is a count of units in the complex or per binding partner. Take B1: the “stoichiometry N” value in data set [3] was determined as 2.

The record behind these values is paper PMC4927141, “Structural Insights into a Novel Class of Aspartate Aminotransferase from Corynebacterium glutamicum” (PLoS ONE, 2016).
